Assay results as given in ChEMBL document CHEMBL1138604, “Structure-activity relationships of lipopolysaccharide sequestration in N-alkylpolyamines” (Bioorg Med Chem Lett, 2009).
Activity calls are given as the source filed them. The rule behind the calls is not given here.

Tested on: HEK293
Test: Inhibition of LPS-induced NF-kappaB nuclear transactivation in HEK293 cells transfected with TLR4 coexpressing MD2 and CD14 co-receptor assessed as alkaline phosphatase activity by spectrophotometry
Assay type: cell-based
Conditions: Homo sapiens

| Compound | Activity |
| --- | --- |
| CCCCCCCCCCCCCCCCNCCCNCCCNCCCN | Active |
| CCCCCCCCCCCCCCCCNCCCNCCCNCCCNCCCN | Active |
| CCCCCCCCCCCCCCCCNCCCNCCCNCCCNCCCNCCCN | Active |
| CCCCCCCCCCCCCCCCNCCCNCCCNCCCCNCCCNCCCN | Active |
| CCCCCCCCCCCCCCCCNCCCNCCCCNCCCN | Active |
| CCCCCCCCCCCCCCCCNCCCNCCCNCCCCNCCCN | Active |
